Source: paper PMC11154005 (Science (New York, N.Y.), 2023)

Target: GerA complex (GerAA-GerAB-GerAC) (Bacillus subtilis, UniProt P07869)
Test: membrane depolarisation, DiSC3
Format: cell-based
Conditions: 50 mM L-alanine; 30 min after addition; agonist, recognised by GerAB subunit

GerA complex (GerAA-GerAB-GerAC), sequence (P07869 whole entry): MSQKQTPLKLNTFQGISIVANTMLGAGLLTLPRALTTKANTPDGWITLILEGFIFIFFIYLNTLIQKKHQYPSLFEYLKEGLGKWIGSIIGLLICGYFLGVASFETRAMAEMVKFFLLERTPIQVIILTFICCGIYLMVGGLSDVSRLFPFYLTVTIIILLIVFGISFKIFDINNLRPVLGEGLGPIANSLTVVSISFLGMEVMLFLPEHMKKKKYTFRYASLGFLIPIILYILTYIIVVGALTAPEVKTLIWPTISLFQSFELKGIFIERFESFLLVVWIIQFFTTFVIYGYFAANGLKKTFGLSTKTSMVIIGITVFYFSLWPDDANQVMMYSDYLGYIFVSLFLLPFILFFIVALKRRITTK
GerA complex (GerAA-GerAB-GerAC), sequence (P07870 18-373, further chain): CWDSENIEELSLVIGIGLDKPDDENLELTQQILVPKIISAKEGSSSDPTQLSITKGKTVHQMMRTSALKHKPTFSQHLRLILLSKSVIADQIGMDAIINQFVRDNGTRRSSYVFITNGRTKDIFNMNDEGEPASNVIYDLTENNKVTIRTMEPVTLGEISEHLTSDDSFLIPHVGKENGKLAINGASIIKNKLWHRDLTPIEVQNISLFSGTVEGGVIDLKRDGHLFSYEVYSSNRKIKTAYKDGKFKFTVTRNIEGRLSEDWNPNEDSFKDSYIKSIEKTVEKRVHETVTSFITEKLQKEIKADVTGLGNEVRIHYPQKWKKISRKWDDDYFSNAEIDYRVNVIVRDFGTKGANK
GerA complex (GerAA-GerAB-GerAC), sequence (P07868 whole entry, further chain): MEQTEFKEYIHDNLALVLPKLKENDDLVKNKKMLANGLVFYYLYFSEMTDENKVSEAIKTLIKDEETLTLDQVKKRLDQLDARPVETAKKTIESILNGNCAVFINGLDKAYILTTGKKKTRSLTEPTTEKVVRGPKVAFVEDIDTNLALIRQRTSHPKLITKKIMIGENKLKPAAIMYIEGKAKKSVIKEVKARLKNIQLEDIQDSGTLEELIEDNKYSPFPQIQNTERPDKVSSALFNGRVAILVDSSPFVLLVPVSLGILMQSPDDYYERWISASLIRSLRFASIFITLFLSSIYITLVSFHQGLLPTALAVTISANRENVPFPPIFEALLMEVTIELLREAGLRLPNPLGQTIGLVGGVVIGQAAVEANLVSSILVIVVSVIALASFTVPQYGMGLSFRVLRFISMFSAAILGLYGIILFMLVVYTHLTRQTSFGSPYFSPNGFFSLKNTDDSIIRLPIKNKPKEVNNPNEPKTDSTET

- % reduction in DiSC3(5) fluorescence at 50 mM: 30%
SMILES: C[C@H](N)C(=O)O [L-alanine]
